In patent publication US10030020B2, “Spirocycle compounds and methods of making and using same” (Abide Therapeutics, Inc., priority 2016, dated 2018):
Read-outs that look alike come from different tables or passages of the source.

Tests used:
[1] = target: T1, MAGL (Mus musculus (Mouse), UniProt O35678); assay: In vitro competitive activity-based protein profiling (mouse brain membrane fraction or cell lysates), MAGL band; type: biochemical; conditions: for inhibition at 1 µM: read-out: MAGL % Inh 1 μM (mouse)
Description: In Vitro Competitive Activity-Based Protein Profiling.
Proteomes (mouse brain membrane fraction or cell lysates) (50 μL, 1.0 mg/mL total protein concentration) were preincubated with varying concentrations of inhibitors at 37° C. After 30 min, FP—Rh (1.0 μL, 50 μM in DMSO) was added and the mixture was incubated for another 30 min at 37° C. Reactions were quenched with SDS loading buffer (50 μL-4×) and run on SDS-PAGE.

[2] = target: T2, ABHD6 (Mus musculus (Mouse), UniProt Q8R2Y0); assay: In vitro competitive activity-based protein profiling (mouse brain membrane fraction or cell lysates), ABHD6 band; type: biochemical; conditions: for inhibition at 1 µM: read-out: ABHD6 % Inh 1 μM (mouse)
Summary of the method: (§1)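 Competitive ABPP: proteome 1.0 mg/mL protein + inhibitor, 30 min, 37° C; FP-Rh probe (stock 50 μM in DMSO) added, 30 min, 37° C; SDS quench, SDS-PAGE, fluorescent band intensity read.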

[3] = target: T3, FAAH (Mus musculus (Mouse), UniProt O08914); assay: In vitro competitive activity-based protein profiling (mouse brain membrane fraction or cell lysates), FAAH band; type: biochemical; conditions: for inhibition at 1 µM: read-out: FAAH % Inh 1 μM (mouse)
Summary of the method: as §1

[4] = target: MAGL (Homo sapiens (Human), UniProt Q99685); assay: In vitro competitive activity-based protein profiling (human prefrontal cortex or cell membrane fractions; hMAGL expressed in HEK293T cells); type: biochemical
Summary of the method: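 Human prefrontal cortex or cell membrane proteomes (1.0-2.0 mg/mL), or lysates of HEK293T cells expressing hMAGL diluted into mock proteome, preincubated with inhibitor 30 min at 37° C. FP-Rh or JW912 probe then added for 30 min at room temperature. Residual labeling resolved by SDS-PAGE.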

[5] = target: T1, MAGL; assay: Mouse brain proteomes from inhibitor treated mice (oral gavage, sacrificed 4 h after administration, ABPP analysis); type: in vivo, mouse (C57Bl/6J); conditions: 5 mg/kg oral gavage
Summary of the method: (§2)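 Wild-type C57Bl/6J mice were dosed by oral gavage in vehicle (e.g. PEG400/Ethanol/PBS 7/2/1) and sacrificed 4 h later. Brain proteomes were analysed by activity-based protein profiling; values are % inhibition at 5 mg/kg.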

[6] = target: T3, FAAH; assay: Mouse brain proteomes from inhibitor treated mice (oral gavage, sacrificed 4 h after administration, ABPP analysis), FAAH; type: in vivo, mouse (C57Bl/6J); conditions: 5 mg/kg oral gavage
Summary of the method: as §2

[7] = target: T2, ABHD6; assay: Mouse brain proteomes from inhibitor treated mice (oral gavage, sacrificed 4 h after administration, ABPP analysis), ABHD6; type: in vivo, mouse (C57Bl/6J); conditions: 5 mg/kg oral gavage
Summary of the method: as §2

[8] = human proteome, competitive ABPP
[9] = mouse proteome, competitive ABPP

MAGL (Homo sapiens (Human), UniProt Q99685), sequence (Q99685 whole entry): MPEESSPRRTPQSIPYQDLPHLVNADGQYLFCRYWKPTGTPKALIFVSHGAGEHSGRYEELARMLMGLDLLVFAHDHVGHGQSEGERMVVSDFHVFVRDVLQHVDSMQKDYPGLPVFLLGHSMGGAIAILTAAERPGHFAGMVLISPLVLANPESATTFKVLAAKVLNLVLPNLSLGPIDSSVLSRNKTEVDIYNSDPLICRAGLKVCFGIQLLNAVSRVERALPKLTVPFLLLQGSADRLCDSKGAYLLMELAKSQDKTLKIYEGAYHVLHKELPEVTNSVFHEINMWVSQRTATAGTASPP
T2 sequence (Q8R2Y0 whole entry): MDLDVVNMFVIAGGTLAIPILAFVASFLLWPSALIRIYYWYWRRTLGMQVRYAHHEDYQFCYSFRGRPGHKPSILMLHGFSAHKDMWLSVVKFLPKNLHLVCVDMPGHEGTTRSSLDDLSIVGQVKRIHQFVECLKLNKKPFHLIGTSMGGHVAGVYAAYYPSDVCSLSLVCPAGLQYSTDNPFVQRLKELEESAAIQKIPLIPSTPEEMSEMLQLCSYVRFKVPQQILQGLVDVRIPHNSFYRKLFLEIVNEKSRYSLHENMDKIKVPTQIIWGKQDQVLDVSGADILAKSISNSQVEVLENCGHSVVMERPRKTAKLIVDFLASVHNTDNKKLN
T3 sequence (O08914 whole entry): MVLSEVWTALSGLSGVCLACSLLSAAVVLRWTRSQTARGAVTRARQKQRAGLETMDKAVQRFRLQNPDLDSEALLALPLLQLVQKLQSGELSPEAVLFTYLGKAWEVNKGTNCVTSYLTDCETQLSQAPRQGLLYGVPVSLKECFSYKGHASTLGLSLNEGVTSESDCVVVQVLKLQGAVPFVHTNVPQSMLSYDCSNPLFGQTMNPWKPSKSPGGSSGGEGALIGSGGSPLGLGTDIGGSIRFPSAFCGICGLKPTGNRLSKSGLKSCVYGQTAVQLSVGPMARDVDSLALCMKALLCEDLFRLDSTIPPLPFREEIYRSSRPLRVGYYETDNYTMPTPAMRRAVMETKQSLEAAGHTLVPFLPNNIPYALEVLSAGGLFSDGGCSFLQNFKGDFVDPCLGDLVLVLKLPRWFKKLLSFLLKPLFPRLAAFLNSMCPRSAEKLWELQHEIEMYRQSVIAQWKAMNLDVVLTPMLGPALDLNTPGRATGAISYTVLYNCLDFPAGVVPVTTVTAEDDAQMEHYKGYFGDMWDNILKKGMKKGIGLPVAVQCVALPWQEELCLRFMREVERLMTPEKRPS
T1 sequence (O35678 whole entry): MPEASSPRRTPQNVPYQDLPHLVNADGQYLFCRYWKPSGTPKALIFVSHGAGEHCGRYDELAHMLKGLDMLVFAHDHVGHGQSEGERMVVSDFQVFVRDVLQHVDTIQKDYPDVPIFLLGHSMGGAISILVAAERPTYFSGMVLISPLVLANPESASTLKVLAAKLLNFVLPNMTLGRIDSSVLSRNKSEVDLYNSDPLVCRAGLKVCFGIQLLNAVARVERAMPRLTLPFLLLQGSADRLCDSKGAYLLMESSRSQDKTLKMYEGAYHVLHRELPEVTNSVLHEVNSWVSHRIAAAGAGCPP

Row | Compound | inhibition at 1 µM ([1]; mouse proteome) [%] | inhibition at 1 µM ([2]; mouse proteome) [%] | inhibition at 1 µM ([3]; mouse proteome) [%] | IC50 [4, 8] [nM] | MAGL % Inh 5 mg/kg (mouse) [5] | FAAH % Inh 5 mg/kg (mouse) [6] | ABHD6 % Inh 5 mg/kg (mouse) [7] | IC50 [1, 9] [nM] | IC50 [2, 9] [nM] | IC50 [3, 9] [nM] | inhibition at 1 µM ([1]; mouse) [%] | inhibition at 1 µM ([2]; mouse) [%] | inhibition at 1 µM ([3]; mouse) [%] | IC50 ([4]; human) [nM] | IC50 ([1]; mouse) [nM] | IC50 ([2]; mouse) [nM] | IC50 ([3]; mouse) [nM]
1 | CS(=O)(=O)C1CCN(c2cc(C(F)(F)F)ccc2CN2CCCC23CCN(C(=O)OC(C(F)(F)F)C(F)(F)F)CC3)C1 (centres unmarked) [Example 193, 1,1,1,3,3,3-Hexafluoropropan-2-yl 1-(2-(3-(methylsulfonyl)pyrrolidin-1-yl)-4-(trifluoromethyl)benzyl)-1,8-diazaspiro[4.5]decane-8-carboxylate] | > 75 | < 25 | < 25 | < 100 | ## (## is equal to or greater than 25% but less than 75%) | # (# is <25%) | # (# is <25%) | – | – | – | – | – | – | – | – | – | –
2 | O=C(O)C1CCN(Cc2cc(Cl)cc(CN3CCCC34CCN(C(=O)OC(C(F)(F)F)C(F)(F)F)CC4)c2)CC1 [Example 194, 1-(3-Chloro-5-((8-(((1,1,1,3,3,3-hexafluoropropan-2-yl)oxy)carbonyl)-1,8-diazaspiro[4.5]decan-1-yl)methyl)benzyl)piperidine-4-carboxylic acid] | > 75 | < 25 | < 25 | < 100 | ## (## is equal to or greater than 25% but less than 75%) | # (# is <25%) | # (# is <25%) | – | – | – | – | – | – | – | – | – | –
3 | CC1(C(=O)O)CN(c2cc(CN3CCCC34CCN(C(=O)OC(C(F)(F)F)C(F)(F)F)CC4)cc(C(F)(F)F)c2)CCO1 (centres unmarked) [Example 195, 4-(3-((8-(((1,1,1,3,3,3-hexafluoropropan-2-yl)oxy)carbonyl)-1,8-diazaspiro[4.5]decan-1-yl)methyl)-5-(trifluoromethyl)phenyl)-2-methylmorpholine-2-carboxylic acid] | > 75 | < 25 | < 25 | < 100 | # (# is <25%) | # (# is <25%) | # (# is <25%) | < 100 | > 1000 | > 1000 | – | – | – | – | – | – | –
4 | O=C(O)[C@@H]1CCCCN1c1cc(CN2CCCC23CCN(C(=O)OC(C(F)(F)F)C(F)(F)F)CC3)cc(C(F)(F)F)c1 [Example 196, (S)-1-(3-((8-(((1,1,1,3,3,3-Hexafluoropropan-2-yl)oxy)carbonyl)-1,8-diazaspiro[4.5]decan-1-yl)methyl)-5-(trifluoromethyl)phenyl)piperidine-2-carboxylic acid] | > 75 | < 25 | < 25 | < 100 | ### (### is ≥75%) | # (# is <25%) | # (# is <25%) | – | – | – | – | – | – | – | – | – | –
5 | O=C(O)C1CCN(c2cc(C(F)(F)F)ccc2CN2CCCC23CCN(C(=O)OC(C(F)(F)F)C(F)(F)F)CC3)C1 (centres unmarked) [Example 199] | > 75 | 25 to 75 | < 25 | < 100 | ## (## is equal to or greater than 25% but less than 75%) | # (# is <25%) | # (# is <25%) | < 100 | > 1000 | > 1000 | – | – | – | – | – | – | –
6 | O=C(O)C1COCCN1c1cc(CN2CCCC23CCN(C(=O)OC(C(F)(F)F)C(F)(F)F)CC3)cc(C(F)(F)F)c1 (centres unmarked) [Example 200] | > 75 | < 25 | < 25 | < 100 | ## (## is equal to or greater than 25% but less than 75%) | # (# is <25%) | # (# is <25%) | – | – | – | – | – | – | – | – | – | –
7 | N#Cc1cc(CN2CCCC23CCN(C(=O)OC(C(F)(F)F)C(F)(F)F)CC3)cc(N2CCC(C(=O)O)CC2)c1 [Example 210] | > 75 | < 25 | < 25 | < 100 | ### (### is ≥75%) | # (# is <25%) | ## (## is equal to or greater than 25% but less than 75%) | – | – | – | – | – | – | – | – | – | –
8 | O=C(O)[C@@H]1CCCN(c2cc(C(F)(F)F)ccc2CN2CCC3(CCN(C(=O)OC(C(F)(F)F)C(F)(F)F)CC3)C2)C1 [Example 211] | > 75 | < 25 | < 25 | < 100 | ## (## is equal to or greater than 25% but less than 75%) | # (# is <25%) | # (# is <25%) | – | – | – | – | – | – | – | – | – | –
9 | CC1(C(=O)O)CCCN(c2cc(C(F)(F)F)ccc2CN2CCC3(CCN(C(=O)OC(C(F)(F)F)C(F)(F)F)CC3)C2)C1 (centres unmarked) [Example 216] | > 75 | 25 to 75 | < 25 | < 100 | ## (## is equal to or greater than 25% but less than 75%) | # (# is <25%) | # (# is <25%) | – | – | – | – | – | – | – | – | – | –
10 | CC1(C(=O)O)CCN(c2cc(C(F)(F)F)ccc2CN2CCCC23CCN(C(=O)OC(C(F)(F)F)C(F)(F)F)CC3)C1 (centres unmarked) [Example 230] | – | – | – | – | ## (## is equal to or greater than 25% but less than 75%) | # (# is <25%) | # (# is <25%) | – | – | – | > 75 | < 25 | < 25 | < 100 | – | – | –
11 | O=C(O)C1CCN(c2cc(F)cc(CN3CCCC34CCN(C(=O)OC(C(F)(F)F)C(F)(F)F)CC4)c2)CC1 [Example 236] | – | – | – | – | ### (### is ≥75%) | # (# is <25%) | # (# is <25%) | – | – | – | > 75 | < 25 | < 25 | < 100 | – | – | –
12 | O=C(O)C1CCN(Cc2cc(C(F)(F)F)ccc2CN2CCCC23CCN(C(=O)OC(C(F)(F)F)C(F)(F)F)CC3)CC1 [Example 238] | – | – | – | – | ### (### is ≥75%) | # (# is <25%) | # (# is <25%) | – | – | – | > 75 | < 25 | < 25 | < 100 | 100 to 1000 | > 1000 | > 1000
13 | O=C(O)C1CCN(c2cc(S(F)(F)(F)(F)F)ccc2CN2CCCC23CCN(C(=O)OC(C(F)(F)F)C(F)(F)F)CC3)CC1 [Example 240] | – | – | – | – | ### (### is ≥75%) | # (# is <25%) | # (# is <25%) | – | – | – | > 75 | < 25 | < 25 | < 100 | – | – | –

Results, then the molecule that gave them:

Row | inhibition at 1 µM ([1]; mouse proteome) [%] | inhibition at 1 µM ([2]; mouse proteome) [%] | inhibition at 1 µM ([3]; mouse proteome) [%] | IC50 [4, 8] [nM] | MAGL % Inh 5 mg/kg (mouse) [5] | FAAH % Inh 5 mg/kg (mouse) [6] | ABHD6 % Inh 5 mg/kg (mouse) [7] | IC50 [1, 9] [nM] | IC50 [2, 9] [nM] | IC50 [3, 9] [nM] | inhibition at 1 µM ([1]; mouse) [%] | inhibition at 1 µM ([2]; mouse) [%] | inhibition at 1 µM ([3]; mouse) [%] | IC50 ([4]; human) [nM] | IC50 ([1]; mouse) [nM] | IC50 ([2]; mouse) [nM] | IC50 ([3]; mouse) [nM] | Compound
14 | > 75 | 25 to 75 | < 25 | < 100 | # (# is <25%) | # (# is <25%) | # (# is <25%) | 100 to 1000 | > 1000 | > 1000 | – | – | – | – | – | – | – | O=C(O)C1CN(c2cc(C(F)(F)F)ccc2CN2CCCC23CCN(C(=O)OC(C(F)(F)F)C(F)(F)F)CC3)CCO1 (centres unmarked) [Example 197, 4-(2-((8-(((1,1,1,3,3,3-Hexafluoropropan-2-yl)oxy)carbonyl)-1,8-diazaspiro[4.5]decan-1-yl)methyl)-5-(trifluoromethyl)phenyl)morpholine-2-carboxylic acid]
15 | > 75 | < 25 | < 25 | < 100 | ### (### is ≥75%) | # (# is <25%) | # (# is <25%) | – | – | – | – | – | – | – | – | – | – | O=C(O)[C@@H]1CCCN(c2cc(C(F)(F)F)ccc2CN2CCCC23CCN(C(=O)OC(C(F)(F)F)C(F)(F)F)CC3)C1 [Example 214]
16 | > 75 | < 25 | < 25 | < 100 | ### (### is ≥75%) | # (# is <25%) | # (# is <25%) | – | – | – | – | – | – | – | – | – | – | O=C(O)[C@H]1CCCN(c2cc(C(F)(F)F)ccc2CN2CCCC23CCN(C(=O)OC(C(F)(F)F)C(F)(F)F)CC3)C1 [Example 217]
17 | – | – | – | – | ### (### is ≥75%) | # (# is <25%) | # (# is <25%) | – | – | – | > 75 | < 25 | < 25 | < 100 | – | – | – | CC1(C(=O)O)CCCN(c2cc(CN3CCCC34CCN(C(=O)OC(C(F)(F)F)C(F)(F)F)CC4)cc(C(F)(F)F)c2)C1 (centres unmarked) [Example 221]
